In general, pIC50 refers to the IC50 on a negative log10 scale, so that one unit is a factor of ten.

pIC50: −log10 of the molar value.

Our source for the IC50 values is patent publication US9856279B2 (AGIOS PHARMACEUTICALS, INC, priority 2011, dated 2018).

One experiment has as its system U87MG cells. As to the kind of experiment: Cellular assay for IDH1m inhibitors: inhibition of 2-HG production (LC-MS, 48 hours) in U87MG cells. It is filed as cell-based. The settings on record: Homo sapiens, U-87 MG, inhibition of 2-HG production, U87R132H cells; read-out: U87R132H IC50. The procedure, abridged: (§1)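 Cells were seeded at 5000/well in DMEM with 10% FBS, incubated overnight, then treated with compound (0.2% DMSO final) for 48 h at 37° C. Medium 2-HG was quantified by LC-MS. IC50 is the concentration reducing 2-HG by 50% versus DMSO control, and CellTiter-Glo viability was read at 72 h.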

The next experiment deals with HT1080 cells. As to the kind of experiment: Cellular assay for IDH1m inhibitors: inhibition of 2-HG production (LC-MS, 48 hours) in HT1080 cells. Format: cell-based. The settings on record: Homo sapiens, HT-1080; inhibition of 2-HG production, HT1080 cells; read-out: HT1080 IC50. The procedure, abridged: as §1
Another experiment has as its target IDH1 R132H (Homo sapiens, UniProt O75874, R132H). As to the kind of experiment: Assay for IDH1 R132H inhibitors (NADPH/aKG, resazurin detection). Format: biochemical. The settings on record: enzyme assay of Example 12; read-out: IDH1R132H IC50. The essentials:
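Compound added to substrate mix (8 uM NADPH, 2 mM aKG), then enzyme mix (0.2 μg/ml IDH1 R132H); 50 min RT in 20 mM Tris pH 7.5, 150 mM NaCl, 10 mM MgCl2, 0.03% BSA. Resazurin detection mix (30 μM) 5 min RT; resorufin fluorescence Ex544/Em590.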

Sequence of IDH1 R132H (O75874 whole entry R132H): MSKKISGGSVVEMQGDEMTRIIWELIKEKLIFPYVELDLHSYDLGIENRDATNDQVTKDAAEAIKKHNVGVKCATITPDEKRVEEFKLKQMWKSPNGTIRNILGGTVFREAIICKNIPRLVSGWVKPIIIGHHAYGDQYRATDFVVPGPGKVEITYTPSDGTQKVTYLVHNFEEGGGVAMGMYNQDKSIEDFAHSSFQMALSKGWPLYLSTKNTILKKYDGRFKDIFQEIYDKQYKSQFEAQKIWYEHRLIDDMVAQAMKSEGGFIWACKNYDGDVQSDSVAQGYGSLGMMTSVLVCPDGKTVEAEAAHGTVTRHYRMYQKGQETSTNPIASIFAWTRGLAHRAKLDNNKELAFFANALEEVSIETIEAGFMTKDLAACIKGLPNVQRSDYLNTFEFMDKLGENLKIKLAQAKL

As for `CCC(=O)Nc1cccc(-c2cc(C#N)c(N3CCN(C(=O)CCOC)[C@H](C)C3)nc2C2CC2)c1` [Compound 424, (R)—N-(3-(5-cyano-2-cyclopropyl-6-(4-(3-methoxypropanoyl)-3-methylpiperazin-1-yl)pyridin-3-yl)phenyl)propionamide], the pIC50 is 6.00 to 6.30 with U87MG cells, 6.00 to 6.30 in the experiment with HT1080 cells and more than 6.30 at IDH1 R132H.
As to `COCCC(=O)N1CCN(c2nc(C3CC3)c(-c3cccc(NC(=O)C4(C#N)CC4)c3)cc2C#N)C[C@H]1C` [Compound 425, (R)-1-cyano-N-(3-(5-cyano-2-cyclopropyl-6-(4-(3-methoxypropanoyl)-3-methylpiperazin-1-yl)pyridin-3-yl)phenyl)cyclopropanecarboxamide], the pIC50 in the experiment on U87MG cells was 5.00 to 6.00; with HT1080 cells, 5.00 to 6.00; on IDH1 R132H it was 6.00 to 6.30.
Regarding `CCc1cc(-c2cc(C#N)c(N3CCN(C(=O)CCOC)[C@H](C)C3)nc2C2CC2)ccn1` [Compound 426, (R)-2-cyclopropyl-2′-ethyl-6-(4-(3-methoxypropanoyl)-3-methylpiperazin-1-yl)-3,4′-bipyridine-5-carbonitrile], the pIC50 is 5.00 to 6.00 in the experiment with U87MG cells, 5.00 to 6.00 with HT1080 cells and 6.00 to 6.30 at IDH1 R132H.
For the molecule `C=CC(=O)N(C)c1cccc(-c2cc(C#N)c(N3CCN(C(=O)CCOC)[C@H](C)C3)nc2C2CC2)c1` [Compound 427], the pIC50 with U87MG cells, in the experiment with HT1080 cells and at IDH1 R132H was more than 6.30 in each case.
Regarding `C#CC(=O)Nc1cccc(-c2cc(C#N)c(N3CCN(C(=O)CCOC)[C@H](C)C3)nc2C2CC2)c1` [Compound 428, (R)—N-(3-(5-cyano-2-cyclopropyl-6-(4-(3-methoxypropanoyl)-3-methylpiperazin-1-yl)pyridin-3-yl)phenyl)propiolamide], the figures for the pIC50 in the experiment with U87MG cells, in the experiment with HT1080 cells and on IDH1 R132H were 6.00 to 6.30, more than 6.30 and more than 6.30, respectively.
Take `C=CS(=O)(=O)Nc1cccc(-c2cc(C#N)c(N3CCN(C(=O)CCOC)[C@H](C)C3)nc2C2CC2)c1` [Compound 429, (R)—N-(3-(5-cyano-2-cyclopropyl-6-(4-(3-methoxypropanoyl)-3-methylpiperazin-1-yl)pyridin-3-yl)phenyl)ethenesulfonamide]: the pIC50 is 5.00 to 6.00 with U87MG cells, 5.00 to 6.00 in the experiment with HT1080 cells and more than 6.30 on IDH1 R132H.
Take `C=C(F)C(=O)Nc1cccc(-c2cc(C#N)c(N3CCN(C(=O)CCOC)[C@H](C)C3)nc2C2CC2)c1` [Compound 431, (R)—N-(3-(5-cyano-2-cyclopropyl-6-(4-(3-methoxypropanoyl)-3-methylpiperazin-1-yl)pyridin-3-yl)phenyl)-2-fluoroacrylamide]: the pIC50 in the experiment on U87MG cells, in the experiment with HT1080 cells and on IDH1 R132H was 6.00 to 6.30 each time.
With `COCCC(=O)N1CCN(c2nc(C3CC3)c(-c3cccc(NC(=O)C(F)F)c3)cc2C#N)C[C@H]1C` [Compound 432, (R)—N-(3-(5-cyano-2-cyclopropyl-6-(4-(3-methoxypropanoyl)-3-methylpiperazin-1-yl)pyridin-3-yl)phenyl)-2,2-difluoroacetamide], the values for the pIC50 in the experiment on U87MG cells, with HT1080 cells and on IDH1 R132H were 5.00 to 6.00, 5.00 to 6.00 and 6.00 to 6.30, respectively.
On to `COCCC(=O)N1CCN(c2nc(C3CC3)c(-c3cccc4cnc(C)cc34)cc2C#N)C[C@H]1C` [Compound 433, (R)-6-cyclopropyl-2-(4-(3-methoxypropanoyl)-3-methylpiperazin-1-yl)-5-(3-methylisoquinolin-5-yl)nicotinonitrile], for which the negative logarithm of the IC50 (pIC50) in the experiment with U87MG cells, in the experiment on HT1080 cells and on IDH1 R132H was more than 6.30 throughout.
Regarding `COCCC(=O)N1CCN(c2nc(C3CC3)c(-c3ccc4nccn4c3)cc2C#N)C[C@H]1C` [Compound 436, (R)-6-cyclopropyl-5-imidazo[1,2-a]pyridin-6-yl-2-[4-(3-methoxy-propionyl)-3-methyl-piperazin-1-yl]-nicotinonitrile], the pIC50 in the experiment on U87MG cells is 6.00 to 6.30; in the experiment with HT1080 cells, 6.00 to 6.30; on IDH1 R132H it was more than 6.30.
Take `COCCC(=O)N1CCN(c2nc(C3CC3)c(-c3cccc4[nH]ncc34)cc2C#N)C[C@H]1C` [Compound 438, (R)-6-cyclopropyl-5-(1H-indazol-4-yl)-2-[4-(3-methoxy-propionyl)-3-methyl-piperazin-1-yl]-nicotinonitrile]: the pIC50 was 6.00 to 6.30 in the experiment with U87MG cells, 5.00 to 6.00 in the experiment with HT1080 cells and more than 6.30 on IDH1 R132H.
`COCCC(=O)N1CCN(c2nc(C3CC3)c(-c3cccc4nc(O)ccc34)cc2C#N)C[C@H]1C` [Compound 442, (R)-6-cyclopropyl-5-(2-hydroxyquinolin-5-yl)-2-(4-(3-methoxypropanoyl)-3-methylpiperazin-1-yl)nicotinonitrile]: the pIC50 with U87MG cells, with HT1080 cells and at IDH1 R132H was more than 6.30 in each case.
Take `C=Cc1cc(-c2cc(C#N)c(N3CCN(C(=O)C4CC4)[C@H](C)C3)nc2C2CC2)ccn1` [Compound 443, (R)-6-(4-(cyclopropanecarbonyl)-3-methylpiperazin-1-yl)-2-cyclopropyl-2′-vinyl-3,4′-bipyridine-5-carbonitrile]: the pIC50 in the experiment with U87MG cells, with HT1080 cells and at IDH1 R132H was more than 6.30 throughout.
In the case of `C=Cc1cc(-c2cc(C#N)c(N3CCN(C(=O)CC(F)(F)F)[C@H](C)C3)nc2C2CC2)ccn1` [Compound 444, (R)-2-cyclopropyl-6-(3-methyl-4-(3,3,3-trifluoropropanoyl)piperazin-1-yl)-2′-vinyl-3,4′-bipyridine-5-carbonitrile], the negative logarithm of the IC50 (pIC50) in the experiment on U87MG cells, in the experiment on HT1080 cells and on IDH1 R132H was more than 6.30 throughout.
Consider `C=CS(=O)(=O)N(C)c1cccc(-c2cc(C#N)c(N3CCN(C(=O)CCOC)[C@H](C)C3)nc2C2CC2)c1` [Compound 446], for which the pIC50 in the experiment on U87MG cells was 5.00 to 6.00; in the experiment with HT1080 cells it was more than 6.30; at IDH1 R132H, more than 6.30.
As to `COCCC(=O)N1CCN(c2nc(C3CC3)c(-c3cccc(NC(=O)[C@H](C)Cl)c3)cc2C#N)C[C@H]1C` [Compound 447, (S)-2-chloro-N-(3-(5-cyano-2-cyclopropyl-6-((R)-4-(3-methoxypropanoyl)-3-methylpiperazin-1-yl)pyridin-3-yl)phenyl)propanamide], the pIC50 in the experiment on U87MG cells was 5.00 to 6.00; with HT1080 cells it was 5.00 to 6.00; on IDH1 R132H it was 6.00 to 6.30.
Take `CCS(=O)(=O)Nc1cccc(-c2cc(C#N)c(N3CCN(C(=O)CCOC)[C@H](C)C3)nc2C2CC2)c1` [Compound 448, (R)—N-(3-(5-cyano-2-cyclopropyl-6-(4-(3-methoxypropanoyl)-3-methylpiperazin-1-yl)pyridin-3-yl)phenyl)ethanesulfonamide]: the pIC50 is 5.00 to 6.00 with U87MG cells, 5.00 to 6.00 in the experiment on HT1080 cells and more than 6.30 on IDH1 R132H.
For `C=C(C)C(=O)Nc1cccc(-c2cc(C#N)c(N3CCN(C(=O)CCOC)[C@H](C)C3)nc2C2CC2)c1` [Compound 449, (R)—N-(3-(5-cyano-2-cyclopropyl-6-(4-(3-methoxypropanoyl)-3-methylpiperazin-1-yl)pyridin-3-yl)phenyl)methacrylamide], the pIC50 in the experiment on U87MG cells was 5.00 to 6.00; with HT1080 cells, 5.00 to 6.00; on IDH1 R132H, 6.00 to 6.30.
With `C=CS(=O)(=O)Nc1cccc(-c2cc(C#N)c(N3CCN(C(=O)C4CC4)[C@H](C4CC4)C3)nc2C2CC2)c1` [Compound 451], the negative-log IC50 (pIC50) is 5.00 to 6.00 in the experiment with U87MG cells, 5.00 to 6.00 in the experiment with HT1080 cells and more than 6.30 at IDH1 R132H.
With `C=CS(=O)(=O)N(c1cccc(-c2cc(C#N)c(N3CCN(C(=O)C4CC4)[C@H](C4CC4)C3)nc2C2CC2)c1)S(=O)(=O)C=C` [Compound 452, (R)—N-(3-(5-cyano-6-(4-(cyclopropanecarbonyl)-3-cyclopropylpiperazin-1-yl)-2-cyclopropylpyridin-3-yl)phenyl)-N-(vinylsulfonyl)ethenesulfonamide], the pIC50 in the experiment on U87MG cells was 5.00 to 6.00; in the experiment with HT1080 cells, 5.00 to 6.00; on IDH1 R132H, more than 6.30.
As for `C=C(F)C(=O)N(C)c1cccc(-c2cc(C#N)c(N3CCN(C(=O)CCOC)[C@H](C)C3)nc2C2CC2)c1` [Compound 453, (R)—N-(3-(5-cyano-2-cyclopropyl-6-(4-(3-methoxypropanoyl)-3-methylpiperazin-1-yl)pyridin-3-yl)phenyl)-2-fluoro-N-methylacrylamide], the pIC50 in the experiment with U87MG cells was more than 6.30; in the experiment with HT1080 cells, 6.00 to 6.30; at IDH1 R132H, more than 6.30.
For `C=CC(=O)Nc1cccc(-c2cc(C#N)c(N3CCN(C(=O)C4CC4)[C@H](C4CC4)C3)nc2C2CC2)c1` [Compound 454, (R)—N-(3-(5-cyano-6-(4-(cyclopropanecarbonyl)-3-cyclopropylpiperazin-1-yl)-2-cyclopropylpyridin-3-yl)phenyl)acrylamide], the pIC50 in the experiment with U87MG cells, in the experiment with HT1080 cells and at IDH1 R132H was more than 6.30 each time.
As to `C#CC(=O)N(C)c1cccc(-c2cc(C#N)c(N3CCN(C(=O)CCOC)[C@H](C)C3)nc2C2CC2)c1` [Compound 456], the pIC50 with U87MG cells, in the experiment with HT1080 cells and at IDH1 R132H was more than 6.30 throughout.
`Cc1cc2c(-c3cc(C#N)c(N4CCN(C(=O)C5CC5)[C@H](C5CC5)C4)nc3C3CC3)cccc2cn1` [Compound 458, (R)-2-(4-(cyclopropanecarbonyl)-3-cyclopropylpiperazin-1-yl)-6-cyclopropyl-5-(3-methylisoquinolin-5-yl)nicotinonitrile]: the pIC50 in the experiment on U87MG cells is 6.00 to 6.30; with HT1080 cells, 6.00 to 6.30; on IDH1 R132H, more than 6.30.
